EP4707280A1, “1,4-CINEOLE DERIVATIVE AND INTERMEDIATE THEREOF, HERBICIDE CONTAINING SAID DERIVATIVE AS ACTIVE INGREDIENT, METHOD FOR USING HERBICIDE, AND METHOD FOR PREPARING AGROCHEMICAL COMPOSITION” (HOKKO CHEMICAL INDUSTRY CO., LTD., priority 2023, dated 2024)

What was measured:
Assay type in all cases: in vivo
[1] = tested on: Echinochloa crus-galli var. formosensis; experiment: Test Example 1: herbicidal effect test by soil application in paddy rice; conditions: 120 g active ingredient per 10 ares, applied immediately after sowing, flooded pots, 14 days after application; for pest or weed control at 1200 g/ha: Echinochloa crus-galli, soil, 336 h, read-out: weed inhibition rate
In short: (§1)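 Soil-applied test under flooded paddy conditions (~3 cm water) in a glass greenhouse. Seeds were sown shallow (0–1 cm, 30 per species), then compound was dripped in as diluted emulsifiable concentrate at 120 g a.i./10 a.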

[2] = tested on: Echinochloa crus-galli var. formosensis; experiment: Test Example 2: herbicidal effect test by application during growth period of paddy rice; conditions: 120 g per 10 ares, applied seven days after sowing, flooded pots, 14 days after application; for inhibition at 1200 g/ha: Echinochloa crus-galli, read-out: weed inhibition rate
In short: (§2)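 Flooded paddy pot test, greenhouse. Seeds 30/species, 0–1 cm depth, water ~3 cm. EC diluted in water, dropper-applied 7 d post-sowing at 120 g a.i./10 a. Inhibition rate (%) read 14 d after treatment; n=2.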

Digitaria ciliaris [3] = experiment: Test Example 4: herbicidal effect test by stem and leaf treatment in upland field; conditions: 120 g per 10 ares, sprayed seven days after sowing, upland soil, 14 days after application; for inhibition at 1200 g/ha: Digitaria ciliaris, read-out: weed inhibition rate
Echinochloa crus-galli [4] = experiment: as above; conditions: 120 g per 10 ares, sprayed seven days after sowing, upland soil, 14 days after application; for inhibition at 1200 g/ha: Echinochloa crus-galli, read-out: weed inhibition rate
[5] = tested on: Echinochloa crus-galli var. formosensis; experiment: Test Example 5: herbicidal effect test by soil application in paddy rice (low dose); conditions: 7.5 g per 10 ares, applied immediately after sowing, flooded pots, 14 days after application; for inhibition at 75 g/ha: Echinochloa crus-galli, soil, 336 h, read-out: weed inhibition rate
Description: (§3) The present test was conducted in duplicate for each chemical concentration group, and the weed inhibition rate (%) was determined 14 days after chemical application using the following formula (Math. 1). [formula]
Wagner pots with an area of […] were filled with paddy soil, followed by addition of water and incorporation of chemical fertilizer (N:P:K = 16:16:16), after which puddling was performed. After that, seeds of Echinochloa crus-galli var. formosensis, broad-leaved weeds (Monochoria vaginalis), and Scirpus juncoides were sown at a depth of 0 cm to 1 cm, 30 seeds each. Immediately after sowing, the pots were flooded and a water depth of approximately 3 cm was maintained. Subsequent management was conducted in a glass greenhouse. Immediately thereafter, an emulsifiable concentrate prepared according to Formulation Example 5 using the compound shown below was diluted with water, and a specified amount of the diluted solution was applied by dropper. The amount of the active ingredient to be applied was equivalent to 7.5 g per 10 ares. […]

Scirpus juncoides [6] = experiment: Test Example 1: herbicidal effect test by soil application in paddy rice; conditions: Schoenoplectiella juncoides, soil, 336 h; 120 g active ingredient per 10 ares; applied immediately after sowing, flooded pots; 14 days after application; read-out: weed inhibition rate
In short: as §1

Scirpus juncoides [7] = experiment: Test Example 2: herbicidal effect test by application during growth period of paddy rice; conditions: Schoenoplectiella juncoides; 120 g per 10 ares; applied seven days after sowing, flooded pots; 14 days after application; read-out: weed inhibition rate
In short: as §2

Digitaria ciliaris [8] = experiment: Test Example 3: herbicidal effect test by soil application in upland field; conditions: 120 g per 10 ares, sprayed one day after sowing, 14 days after application; for inhibition at 1200 g/ha: Digitaria ciliaris, read-out: weed inhibition rate
In short: (§4)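 Pre-emergence test: seeds mixed into top 1 cm of alluvial loam upland soil in pots; emulsifiable concentrate diluted in water sprayed on soil one day after sowing at 100 L/10 a, 120 g a.i./10 a. Weed inhibition rate (%) scored at 14 days, in duplicate.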

Echinochloa crus-galli [9] = experiment: as above; conditions: 120 g per 10 ares, sprayed one day after sowing, 14 days after application; for inhibition at 1200 g/ha: Echinochloa crus-galli, read-out: weed inhibition rate
In short: as §4

[10] = tested on: Echinochloa crus-galli var. formosensis; experiment: Test Example 6: herbicidal effect test by application during growth period of paddy rice (low dose); conditions: 7.5 g per 10 ares, applied seven days after sowing, flooded pots, 14 days after application; for inhibition at 75 g/ha: Echinochloa crus-galli, read-out: weed inhibition rate
Description: as §3
Wagner pots with an area of […] were filled with paddy soil, followed by addition of water and incorporation of chemical fertilizer (N:P:K = 16:16:16), after which puddling was performed. After that, seeds of Echinochloa crus-galli var. formosensis, broad-leaved weeds (Monochoria vaginalis), and Scirpus juncoides were sown at a depth of 0 cm to 1 cm, 30 seeds each. Immediately after sowing, the pots were flooded and a water depth of approximately 3 cm was maintained. Subsequent management was conducted in a glass greenhouse. Seven days after sowing, an emulsifiable concentrate prepared according to Formulation Example 5 using the compound shown below was diluted with water, and a specified amount of the diluted solution was applied by dropper. The amount of the active ingredient to be applied was equivalent to 7.5 g per 10 ares. The test was conducted in duplicate for each chemical concentration group, and the herbicidal effect was evaluated 14 days after chemical application using the same criteria as in Test Example 1.

COc1ccccc1CO[C@@H]1C[C@]2(C(C)C)O[C@@]1(C)CC2=O [2-7, (1R,4S,5R)-1-isopropyl-5-((2-methoxybenzyl)oxy)-4-methyl-7-oxabicyclo[2.2.1]heptan-2-one]
≥ 80%: pest or weed control at 1200 g/ha [1] | inhibition at 1200 g/ha [2] | inhibition at 1200 g/ha (Digitaria ciliaris [3]) | inhibition at 1200 g/ha (Echinochloa crus-galli [4]) | inhibition at 75 g/ha [5]

COC(=O)c1ccccc1CO[C@H]1C[C@@]2(C(C)C)O[C@]1(C)C[C@H]2I [1-1115, methyl 2-[[(1R,2S,4S,5R)-5-iodo-1-methyl-4-isopropyl-7-oxabicyclo[2.2.1]heptan-2-yl]oxymethyl]benzoate]
≥ 80%: pest or weed control at 1200 g/ha (Scirpus juncoides [6]) | inhibition at 1200 g/ha (Scirpus juncoides [7])

CCCCCCO[C@@H]1C[C@]2(C(C)C)O[C@@]1(C)C[C@@H]2Br [1-669, (1S,2R,4R,5S)-5-bromo-2-hexoxy-1-methyl-4-isopropyl-7-oxabicyclo[2.2.1]heptane]
≥ 80%: pest or weed control at 1200 g/ha [1] | inhibition at 1200 g/ha [2] | inhibition at 1200 g/ha (Scirpus juncoides [7]) | inhibition at 1200 g/ha (Digitaria ciliaris [8]) | inhibition at 1200 g/ha (Echinochloa crus-galli [9]) | inhibition at 1200 g/ha (Digitaria ciliaris [3]) | inhibition at 1200 g/ha (Echinochloa crus-galli [4])

Cc1ccccc1CO[C@@H]1C[C@]2(C(C)C)O[C@@]1(C)CC2c1ccccc1 (stereo partly drawn) [1-313, (1S,2R,4R)-4-isopropyl-1-methyl-2-((2-methylbenzyl)oxy)-5-phenyl-7-oxabicyclo[2.2.1]heptane]
≥ 80%: pest or weed control at 1200 g/ha [1] | inhibition at 1200 g/ha [2] | inhibition at 1200 g/ha (Echinochloa crus-galli [9]) | inhibition at 1200 g/ha (Echinochloa crus-galli [4]) | inhibition at 75 g/ha [5] | inhibition at 75 g/ha [10]

CC(C)[C@]12C[C@@H](OCc3ccccc3F)[C@](C)(CC1c1ccsc1)O2 (stereo partly drawn) [1-928, (1S,2R,4R)-2-((2-fluorobenzyl)oxy)-4-isopropyl-1-methyl-5-(thiophen-3-yl)-7-oxabicyclo[2.2.1]heptane]
≥ 80%: pest or weed control at 1200 g/ha [1] | inhibition at 1200 g/ha [2] | inhibition at 1200 g/ha (Digitaria ciliaris [3]) | inhibition at 1200 g/ha (Echinochloa crus-galli [4]) | inhibition at 75 g/ha [5] | inhibition at 75 g/ha [10]

Cc1noc(C)c1CO[C@@H]1C[C@]2(C(C)C)O[C@@]1(C)C[C@@H]2Br [1-723, 4-[[(1S,2R,4R,5S)-5-bromo-1-methyl-4-isopropyl-7-oxabicyclo[2.2.1]heptan-2-yl]oxymethyl]-3,5-dimethyl-1,2-oxazole]
≥ 80%: pest or weed control at 1200 g/ha [1] | inhibition at 1200 g/ha [2] | inhibition at 75 g/ha [5] | inhibition at 75 g/ha [10]

CC(=O)O[C@@H]1C[C@]2(C)O[C@@]1(C(C)C)C[C@H]2OCc1ccccc1F [1-932, [(1R,2R,4S,5R)-5-[(2-fluorophenyl)methoxy]-4-methyl-1-isopropyl-7-oxabicyclo[2.2.1]heptan-2-yl]acetate]
≥ 80%: weed inhibition rate [1] | weed inhibition rate [2] | weed inhibition rate [5] | weed inhibition rate [10]

CC(C)[C@@]12C[C@H](OCc3c(F)cccc3F)[C@@](C)(C[C@H]1Br)O2 [1-1052, (1R,28,48,5R)-5-bromo-2-[(2,6-difluorophenyl)methoxy]-1-methyl-4-isopropyl-7-oxabicyclo[2.2.1]heptane]
≥ 80%: weed inhibition rate [1] | weed inhibition rate [2] | weed inhibition rate (Digitaria ciliaris [8]) | weed inhibition rate (Echinochloa crus-galli [9]) | weed inhibition rate (Digitaria ciliaris [3]) | weed inhibition rate (Echinochloa crus-galli [4])

CC(C)[C@@]12C[C@H](OCc3ccccc3C#N)[C@@](C)(C[C@H]1Br)O2 [1-1043, 2-[[(1R,2S,4S,5R)-5-bromo-1-methyl-4-isopropyl-7-oxabicyclo[2.2.1]heptan-2-yl]oxymethyl]benzonitrile]
≥ 80%: pest or weed control at 1200 g/ha [1] | inhibition at 1200 g/ha [2] | inhibition at 1200 g/ha (Digitaria ciliaris [8]) | inhibition at 1200 g/ha (Echinochloa crus-galli [9]) | inhibition at 1200 g/ha (Digitaria ciliaris [3]) | inhibition at 1200 g/ha (Echinochloa crus-galli [4])

CC(C)[C@]12C[C@@H](OCc3cccc(Br)c3)[C@](C)(C[C@@H]1Br)O2 [1-695, (1S,2R,4R,5S)-5-bromo-2-[(3-bromophenyl)methoxy]-1-methyl-4-isopropyl-7-oxabicyclo[2.2.1]heptane]
≥ 80%: pest or weed control at 1200 g/ha [1] | inhibition at 1200 g/ha [2] | inhibition at 1200 g/ha (Digitaria ciliaris [8]) | inhibition at 1200 g/ha (Echinochloa crus-galli [9]) | inhibition at 1200 g/ha (Digitaria ciliaris [3]) | inhibition at 1200 g/ha (Echinochloa crus-galli [4])

CC(C)C12CC(OCc3ccc(Br)cc3)C(C)(CC1Br)O2 (centres unmarked) [1-1363, 5-bromo-2-[(4-bromophenyl)methoxy]-1-methyl-4-isopropyl-7-oxabicyclo[2.2.1]heptane]
≥ 80%: pest or weed control at 1200 g/ha [1] | inhibition at 1200 g/ha [2] | inhibition at 1200 g/ha (Digitaria ciliaris [8]) | inhibition at 1200 g/ha (Echinochloa crus-galli [9]) | inhibition at 1200 g/ha (Digitaria ciliaris [3]) | inhibition at 1200 g/ha (Echinochloa crus-galli [4])

CC(C)[C@]12C[C@@H](OCc3cccc(C(F)(F)F)c3)[C@](C)(C[C@@H]1Br)O2 [1-701, (1S,2R,4R,5S)-5-bromo-l-methyl-4-isopropyl-2-[[3-(trifluoromethyl)phenyl]methoxy]-7-oxabicyclo[2.2.1]heptane]
≥ 80%: weed inhibition rate [1] | weed inhibition rate [2] | weed inhibition rate (Digitaria ciliaris [8]) | weed inhibition rate (Echinochloa crus-galli [9]) | weed inhibition rate (Digitaria ciliaris [3]) | weed inhibition rate (Echinochloa crus-galli [4])

CC(C)[C@]12C[C@@H](OCC3CCCCC3)[C@](C)(C[C@@H]1Br)O2 [1-676, (1S,2R,4R,5S)-5-bromo-2-(cyclohexylmethoxy)-1-methyl-4-isopropyl-7-oxabicyclo[2.2.1]heptane]
≥ 80%: pest or weed control at 1200 g/ha [1] | pest or weed control at 1200 g/ha (Scirpus juncoides [6]) | inhibition at 1200 g/ha [2] | inhibition at 1200 g/ha (Digitaria ciliaris [8]) | inhibition at 1200 g/ha (Echinochloa crus-galli [9]) | inhibition at 1200 g/ha (Digitaria ciliaris [3]) | inhibition at 1200 g/ha (Echinochloa crus-galli [4]) | inhibition at 75 g/ha [5] | inhibition at 75 g/ha [10]

CC(C)[C@]12C[C@@H](OCc3cccc4ccccc34)[C@](C)(C[C@@H]1Br)O2 [1-715, (1S,2R,4R,5S)-5-bromo-1-methyl-2-(naphthalen-1-ylmethoxy)-4-isopropyl-7-oxabicyclo[2.2.1]heptane]
≥ 80%: pest or weed control at 1200 g/ha [1] | inhibition at 1200 g/ha [2] | inhibition at 75 g/ha [5] | inhibition at 75 g/ha [10]

CCc1ccccc1COC1CC2(C(C)C)OC1(C)CC2Br (centres unmarked) [1-1346, 5-bromo-2-[(2-ethylphenyl)methoxy]-1-methyl-4-isopropyl-7-oxabicyclo[2.2.1]heptane]
≥ 80%: pest or weed control at 1200 g/ha [1] | inhibition at 1200 g/ha [2] | inhibition at 1200 g/ha (Digitaria ciliaris [8]) | inhibition at 1200 g/ha (Echinochloa crus-galli [9]) | inhibition at 1200 g/ha (Digitaria ciliaris [3]) | inhibition at 1200 g/ha (Echinochloa crus-galli [4])

CC(C)C12CC(OCc3ccc(Cl)cc3)C(C)(CC1Br)O2 (centres unmarked) [1-1360, 5-bromo-2-[(4-chlorophenyl)methoxy]-1-methyl-4-isopropyl-7-oxabicyclo[2.2.1]heptane]
≥ 80%: pest or weed control at 1200 g/ha [1] | inhibition at 1200 g/ha [2] | inhibition at 1200 g/ha (Digitaria ciliaris [8]) | inhibition at 1200 g/ha (Echinochloa crus-galli [9]) | inhibition at 1200 g/ha (Digitaria ciliaris [3]) | inhibition at 1200 g/ha (Echinochloa crus-galli [4])
